Test results from US12514849B2, “Pharmaceutical formulations containing relacorilant, a heteroaryl-ketone fused azadecalin compound” (Corcept Therapeutics Incorporated, priority 2018, dated 2026).

How the values were obtained:
[1] = Compatibility/stability of relacorilant with excipients at 40° C./75% RH and 60° C.; format: physicochemical
Description: The stability of relacorilant in a series of potential excipients was also examined for two weeks at 40° C. at 75% relative humidity, and at 60° C., including in formulations of Table I. The predominant degradation path was through formation of the aromatic decarbonylation of relacorilant with both propylene glycol monocaprylate and lauroyl polyoxyl-32 glyceride excipients. Relacorilant stability was good with both these excipients.

[2] = Stability of relacorilant to pH, moisture and light; format: physicochemical
Description: Relacorilant stability and compatibility with various excipients was tested and suitable excipients were identified. […] Lauryl polyoxyl-32 glycerides (Gelucire 44/14, available from Gattefosse USA, New Jersey) in place of the stearoyl polyoxyl-32 glycerides were then used. […] This formulation was tested for stability. Stability testing included testing of some formulations for up to one year.

purity (% relacorilant of relacorilant plus relacorilant-derived impurities) ([1]; in lauroyl polyoxyl-32 glycerides, 40° C./75% RH, 1 week): 97.64%
purity (% relacorilant of relacorilant plus relacorilant-derived impurities) ([1]; in lauroyl polyoxyl-32 glycerides, 40° C./75% RH, 2 week): 97.55%
purity (% relacorilant of relacorilant plus relacorilant-derived impurities) ([1]; in lauroyl polyoxyl-32 glycerides, 60° C., 1 week): 97.22%
purity (% relacorilant of relacorilant plus relacorilant-derived impurities) ([1]; in lauroyl polyoxyl-32 glycerides, 60° C., 2 week): 96.77%
purity (% relacorilant of relacorilant plus relacorilant-derived impurities) ([1]; in lauroyl polyoxyl-32 glycerides, Control): 98.09%
purity (% relacorilant of relacorilant plus relacorilant-derived impurities) ([1]; in lauroyl polyoxyl-32 glycerides, T0): 98.13%
purity (% relacorilant of relacorilant plus relacorilant-derived impurities) ([1]; in propylene glycol monocaprylate, 40° C./75% RH, 1 week): 98.00%
purity (% relacorilant of relacorilant plus relacorilant-derived impurities) ([1]; in propylene glycol monocaprylate, 40° C./75% RH, 2 week): 97.84%
purity (% relacorilant of relacorilant plus relacorilant-derived impurities) ([1]; in propylene glycol monocaprylate, 60° C., 1 week): 97.51%
purity (% relacorilant of relacorilant plus relacorilant-derived impurities) ([1]; in propylene glycol monocaprylate, 60° C., 2 week): 96.65%
purity (% relacorilant of relacorilant plus relacorilant-derived impurities) ([1]; in propylene glycol monocaprylate, Control): 98.03%
purity (% relacorilant of relacorilant plus relacorilant-derived impurities) ([1]; in propylene glycol monocaprylate, T0): 98.09%
sensitivity to moisture and light [2]: sensitive to both moisture and light
stability in acidic aqueous solutions ([2]; acidic aqueous solutions): stable
stability under basic conditions ([2]; basic conditions): sensitive to basic conditions
stability over time in formulations having basic pH ([2]; basic pH, particularly pH greater than 8, versus neutral or acidic pH): significantly less stable
stability in neutral solutions ([2]; neutral solutions at elevated temperatures): degrade over time
SMILES: Cn1cc(S(=O)(=O)N2CCC3=Cc4c(cnn4-c4ccc(F)cc4)C[C@]3(C(=O)c3cc(C(F)(F)F)ccn3)C2)cn1 [Relacorilant, (R)-(1-(4-fluorophenyl)-6-((1-methyl-1H-pyrazol-4-yl)sulfonyl)-4,4a,5,6,7,8-hexahydro-1H-pyrazolo[3,4-g]isoquinolin-4a-yl)(4-(trifluoromethyl)pyridin-2-yl)methanone]
